Measured values: patent publication US10323254B2, “Method for regulating plant growth” (RIKEN, priority 2015, dated 2019)

Experiments:
[1] = test system: BR-responsive genes (TCH4, BAS1, IAA19, and SAUR-AC1); assay: qRT-PCR of BR-responsive gene expression in seedlings; type: in vivo, Arabidopsis thaliana; conditions: wild-type (WT) plants; 7-day-old dark-germinated seedlings; 3 μM Brz or 100 nM BL for 3 hours
Protocol: The expression level of TCH, BAS1, IAA19, and SAUR-AC1 were analyzed by qRT-PCR in 7-day-old dark-germinated seedlings and treated with medium containing DMSO (Mock), 3 μM Brz (+Brz), or 100 nM BL (+BL) for 3 hours. The data represent the mean±s.d. of 4 independent experiments (**P<0.01, Student's t-test). […] Ten-day-old seedlings grown on medium with Brz were treated with 100 nM BL or mock solution for 3 hours. Total proteins were extracted and analyzed by immunoblotting with an anti-BIL1 antibody. […] The signal intensities of phosphorylated BIL1 (above) and dephosphorylated BIL1 (below) are shown by arrowhead, and each band signal is counted as a percentage relative to the level of phosphorylated BIL1 in WT seedlings.
Total RNA was extracted from plants using an RNeasy Plant Mini Kit (QIAGEN).
The first-strand cDNA was synthesized using PrimeScript (Takara) and was used in qRT-PCR. The qRT-PCR was performed according to the instructions provided for the Thermal Cycler Dice (Takara) using the SYBR Premix ExTaq system (Takara). […]

BSS1 = assay: qRT-PCR of BSS1 expression in wild-type seedlings; type: in vivo, Arabidopsis thaliana; conditions: WT seedlings on medium with different concentrations of Brz or BL, 7 days; dose-dependent
Protocol: The data represent the mean±s.d. from 4 independent experiments. […] The samples were grown in the same conditions as FIG. 4A for 3 days (scale bar: 5 mm). FIGS. 4C to 4E show the results of determining the BSS1 expression level by qRT-PCR. Wild-type (WT) seedlings grown on medium with different concentrations of Brz (FIG. 4C) and BL (FIG. 4D) in the light for 7 days and dark-grown seedlings exposed to light for 0-7 days (Figure E) were used for analysis of the BSS1 expression level. The data represent the mean±s.d. of 4 independent experiments.
Approximately 10,000 RIKEN GSC Arabidopsis activation-tagging lines (Nakazawa et al., 2003, Activation tagging, a novel tool to dissect the functions of a gene family. Plant J. 34: 741-750) were screened on ½ MS medium containing 3 μM Brz (Asami et al., 2000, Characterization of brassinazole, a triazole-type brassinosteroid biosynthesis inhibitor, Plant Physiol. 123: 93-100). After growth for 7 days in the dark, seedlings with shorter hypocotyls than those of the controls were identified and transferred to soil. […] First-strand cDNA was synthesized with PrimeScript (Takara) and used in quantitative real-time PCR (qRT-PCR). […]

[2] = test system: nEYFP-BSS1 and BIL1-cEYFP; assay: BiFC analysis of the BSS1-BIL1 interaction in protoplast cells; type: cell-based, Arabidopsis; conditions: protoplasts
Protocol: BIL1 was fused with the binding-domain (BD) and BSS1 was fused with the prey domain (AD). Empty vector (E) was used as a control. The results are presented as the mean±s.d. from 3 independent experiments. […] FLAG-BIL1 was immunoprecipitated using an anti-FLAG antibody and immunoblotted using anti-GFP and anti-FLAG antibodies. […] The protoplast medium contained DMSO, 100 nM BL, or 3 μM Brz and cells were cultured for 12 hours. The bottom panels show protoplasts cotransfected with nYFP-BSS1 and BSS1-cEYFP (YFP: YFP fluorescence; BF: bright field; Merge: merged image of YFP and BF; arrow: nucleus; scale bar: 5 μm). […]
To analyze the direct interaction between BSS1 and BIL1 in the plant cell and to identify the localization of the possible interaction between the two proteins, a bi-molecular fluorescence complementation (BiFC) analysis was performed. […] The YFP fluorescence signal caused by the binding of nYFP-BSS1 and BIL1-cYFP was only observed in the cytosol and not in the nucleus of the Arabidopsis protoplasts (FIG. 7E). […]

BSS1-GFP = assay: Fluorescence microscopy of punctate BSS1-GFP in transgenic seedlings; type: in vivo, Arabidopsis thaliana; conditions: versus control conditions; for number of punctate BSS1-GFP: seedlings grown on medium with 3 μM Brz or 100 nM BL

SMILES	expression of TCH4, BAS1, IAA19, and SAUR-AC1 [1]	BSS1 expression (BSS1)	punctate YFP signal (nYFP-BSS1 / BIL1-cYFP) ([2]; 3 μM Brz for 12 hours)	diffused BSS1-GFP signal in the cytosol (BSS1-GFP; seedlings grown on medium containing Brz)	number of punctate BSS1-GFP (BSS1-GFP)	localization of YFP signal (nYFP-BSS1 / BIL1-cYFP) ([2]; 100 nM BL for 12 hours)
CC(O)(c1ccccc1)C(Cc1ccc(Cl)cc1)n1cncn1 (stereo not drawn) [Brz, brassinazole]	suppressed	increased	increased	reduced	increased in number	
CC(C)[C@H](C)[C@@H](O)[C@H](O)[C@@H](C)[C@H]1CC[C@H]2[C@@H]3COC(=O)[C@H]4C[C@H](O)[C@H](O)C[C@]4(C)[C@H]3CC[C@]12C [BL, brassinolide]	increased	decreased			decreased in number	diffuse and spread throughout the cytosol and the nucleus
